Laboratory results published in ChEMBL document CHEMBL4725315, “Structure-guided optimization of a novel class of ASK1 inhibitors with increased sp character and an exquisite selectivity profile” (Bioorg Med Chem Lett, 2020).
Converted amounts (≈) assume the structure as drawn. Each block holds one compound with its values, some of them ahead of it.

Columns and labels:
[1] = biological target: Tyrosine-protein kinase Mer (Homo sapiens, UniProt Q12866); assay: Inhibition of MER (unknown origin)
[2] = biological target: T1, Receptor tyrosine-protein kinase erbB-4 (Homo sapiens, UniProt Q15303); assay: Inhibition of HER4 (unknown origin)
MAP kinase p38 = MAP kinase p38 (Homo sapiens, UniProt O15264+Q15759+Q16539+P53778); assay: Inhibition of p38 (unknown origin); assay type: protein assay
[3] = biological target: Epidermal growth factor receptor (Homo sapiens, UniProt P00533); assay: Inhibition of EGFR (unknown origin)
[4] = Inhibition of GSK3 (unknown origin); set-up: species or system Homo sapiens
[5] = biological target: 5'-AMP-activated protein kinase catalytic subunit alpha-1 (Homo sapiens, UniProt Q13131); assay: Inhibition of PRKKA1 (unknown origin)
Ephrin type-A receptor 3 = Ephrin type-A receptor 3 (Homo sapiens, UniProt P29320); assay: Inhibition of EPHA3 (unknown origin)
[6] = biological target: Cyclin-dependent kinase 2 (Homo sapiens, UniProt P24941); assay: Inhibition of CDK2 (unknown origin)
[7] = biological target: Rho-associated protein kinase 1 (Homo sapiens, UniProt Q13464); assay: Inhibition of ROCK1 (unknown origin)
[8] = biological target: Tyrosine-protein kinase ITK/TSK (Homo sapiens, UniProt Q08881); assay: Inhibition of ITK (unknown origin)
[9] = biological target: Proto-oncogene tyrosine-protein kinase receptor Ret (Homo sapiens, UniProt P07949); assay: Inhibition of RET (unknown origin)
[10] = biological target: T2, Mitogen-activated protein kinase kinase kinase 5 (Homo sapiens, UniProt Q99683); assay: Inhibition of ASK1 (unknown origin)
T2 sequence (Q99683 whole entry): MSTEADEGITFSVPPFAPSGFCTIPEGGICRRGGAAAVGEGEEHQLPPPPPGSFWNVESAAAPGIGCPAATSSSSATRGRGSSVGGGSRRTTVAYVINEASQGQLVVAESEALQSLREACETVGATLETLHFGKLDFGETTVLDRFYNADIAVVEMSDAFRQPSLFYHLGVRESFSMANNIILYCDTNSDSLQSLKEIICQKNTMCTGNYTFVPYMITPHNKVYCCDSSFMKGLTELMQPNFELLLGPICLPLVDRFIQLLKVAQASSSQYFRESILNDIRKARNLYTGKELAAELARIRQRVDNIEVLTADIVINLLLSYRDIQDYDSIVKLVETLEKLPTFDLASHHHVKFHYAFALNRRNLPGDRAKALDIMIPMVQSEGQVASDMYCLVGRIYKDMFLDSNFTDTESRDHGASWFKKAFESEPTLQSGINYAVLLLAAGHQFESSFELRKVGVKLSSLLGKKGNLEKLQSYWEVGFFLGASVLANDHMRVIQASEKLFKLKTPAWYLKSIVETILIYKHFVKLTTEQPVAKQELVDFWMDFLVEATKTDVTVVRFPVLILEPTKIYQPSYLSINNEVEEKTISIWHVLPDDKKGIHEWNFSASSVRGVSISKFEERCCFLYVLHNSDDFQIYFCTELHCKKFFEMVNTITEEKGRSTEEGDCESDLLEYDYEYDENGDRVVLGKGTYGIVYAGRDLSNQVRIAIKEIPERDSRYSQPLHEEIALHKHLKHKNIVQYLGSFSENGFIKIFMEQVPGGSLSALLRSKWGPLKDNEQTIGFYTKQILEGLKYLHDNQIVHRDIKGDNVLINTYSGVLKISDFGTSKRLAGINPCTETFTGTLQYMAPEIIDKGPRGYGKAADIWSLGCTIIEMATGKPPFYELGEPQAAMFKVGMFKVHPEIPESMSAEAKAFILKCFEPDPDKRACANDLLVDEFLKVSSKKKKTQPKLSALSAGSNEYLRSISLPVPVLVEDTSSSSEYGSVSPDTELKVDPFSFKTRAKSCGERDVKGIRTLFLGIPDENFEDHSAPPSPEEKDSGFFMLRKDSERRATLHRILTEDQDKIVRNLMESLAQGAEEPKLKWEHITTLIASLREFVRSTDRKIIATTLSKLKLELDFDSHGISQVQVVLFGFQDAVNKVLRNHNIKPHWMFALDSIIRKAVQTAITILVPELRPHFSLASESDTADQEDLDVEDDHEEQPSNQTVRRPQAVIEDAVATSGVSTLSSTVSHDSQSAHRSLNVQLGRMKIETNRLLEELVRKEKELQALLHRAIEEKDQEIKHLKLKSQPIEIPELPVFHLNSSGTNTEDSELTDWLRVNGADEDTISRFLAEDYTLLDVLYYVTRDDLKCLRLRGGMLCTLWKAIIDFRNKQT

[11] = biological target: T1, Receptor tyrosine-protein kinase erbB-4; assay: Inhibition of ERBB4 (unknown origin)
[12] = biological target: Casein kinase I isoform gamma-3 (Homo sapiens, UniProt Q9Y6M4); assay: Inhibition of CK1gamma3 (unknown origin)
Homo sapiens [13] = species: Homo sapiens; assay: Selectivity ratio of IC50 for inhibition of recombinant human full-length GST-tagged PKCmu expressed in baculovirus expression system to IC50 for inhibition of ASK1 (unknown origin)
[14] = biological target: Leucine-rich repeat serine/threonine-protein kinase 2 (Homo sapiens, UniProt Q5S007); assay: Inhibition of recombinant human GST-tagged LRRK2 expressed in baculovirus expression system
[15] = biological target: Ribosomal protein S6 kinase alpha-2 (Homo sapiens, UniProt Q15349); assay: Inhibition of recombinant human full-length GST-tagged RSK3 expressed in insect cells
[16] = Metabolic stability in human hepatocytes assessed as hepatic extraction ratio; assay type: ADME, cell-based, Hepatocyte; conditions: read-out: ERH
[17] = biological target: Ribosomal protein S6 kinase alpha-3 (Homo sapiens, UniProt P51812); assay: Inhibition of recombinant human full-length His-tagged RSK2 expressed in baculovirus expression system
[18] = biological target: Serine/threonine-protein kinase D1 (Homo sapiens, UniProt Q15139); assay: Inhibition of recombinant human full-length GST-tagged PKCmu expressed in baculovirus expression system
MDR1 (human) = assay: Permeability across apical to basolateral side in pig LLC-PK1 cells expressing human MDR1; assay type: ADME, cell-based, Sus scrofa; conditions: read-out: permeability
Homo sapiens [19] = species: Homo sapiens; assay: Selectivity ratio of IC50 for inhibition of recombinant human full-length GST-tagged RSK3 expressed in insect cells to IC50 for inhibition of ASK1 (unknown origin)
[20] = Drug absorption in male Sprague-Dawley rat at 1 mg/kg, […] by LC-MS/MS analysis; assay type: ADME, organism-based; conditions: in vivo, read-out: Drug absorption
[21] = biological target: Serine/threonine-protein kinase D2 (Homo sapiens, UniProt Q9BZL6); assay: Inhibition of recombinant human full-length GST-tagged PRKD2 expressed in baculovirus expression system
[22] = biological target: Casein kinase I isoform gamma-1 (Homo sapiens, UniProt Q9HCP0); assay: Inhibition of CK1gamma1 (unknown origin)
Homo sapiens [23] = species: Homo sapiens; assay: Selectivity ratio of IC50 for inhibition of recombinant human full-length His-tagged RSK2 expressed in baculovirus expression system to IC50 for inhibition of ASK1 (unknown origin)
Homo sapiens [24] = species: Homo sapiens; assay: Selectivity ratio of IC50 for inhibition of recombinant human full-length GST-tagged PRKD2 expressed in baculovirus expression system to IC50 for inhibition of ASK1 (unknown origin)
Homo sapiens [25] = species: Homo sapiens; assay: Selectivity ratio of IC50 for inhibition of CK1gamma3 (unknown origin) to IC50 for inhibition of ASK1 (unknown origin)
[26] = Aqueous solubility of the compound in JP2 fluid at […]; assay type: physicochemical
Homo sapiens [27] = species: Homo sapiens; assay: Selectivity ratio of IC50 for inhibition of recombinant human GST-tagged LRRK2 expressed in baculovirus expression system to IC50 for inhibition of ASK1 (unknown origin)
[28] = Oral bioavailability in male Sprague-Dawley rat at 5 mg/kg; assay type: ADME, organism-based; conditions: in vivo
[29] = biological target: Ribosomal protein S6 kinase alpha-6 (Homo sapiens, UniProt Q9UK32); assay: Inhibition of recombinant human full-length GST-tagged RSK4 expressed in baculovirus expression system
Homo sapiens [30] = species: Homo sapiens; assay: Selectivity ratio of IC50 for inhibition of recombinant human full-length GST-tagged RSK4 expressed in baculovirus expression system to IC50 for inhibition of ASK1 (unknown origin)
[31] = biological target: T2, Mitogen-activated protein kinase kinase kinase 5; assay: Inhibition of ASK1 (unknown origin) by cell based assay
Homo sapiens [32] = species: Homo sapiens; assay: Selectivity ratio of IC50 for inhibition of CK1gamma1 (unknown origin) to IC50 for inhibition of ASK1 (unknown origin)
[33] = Aqueous solubility of the compound in JP1 fluid at pH 1.2; assay type: physicochemical
[34] = biological target: T2, Mitogen-activated protein kinase kinase kinase 5; assay: Binding affinity to ASK1 (unknown origin)

T1 sequence (Q15303 whole entry): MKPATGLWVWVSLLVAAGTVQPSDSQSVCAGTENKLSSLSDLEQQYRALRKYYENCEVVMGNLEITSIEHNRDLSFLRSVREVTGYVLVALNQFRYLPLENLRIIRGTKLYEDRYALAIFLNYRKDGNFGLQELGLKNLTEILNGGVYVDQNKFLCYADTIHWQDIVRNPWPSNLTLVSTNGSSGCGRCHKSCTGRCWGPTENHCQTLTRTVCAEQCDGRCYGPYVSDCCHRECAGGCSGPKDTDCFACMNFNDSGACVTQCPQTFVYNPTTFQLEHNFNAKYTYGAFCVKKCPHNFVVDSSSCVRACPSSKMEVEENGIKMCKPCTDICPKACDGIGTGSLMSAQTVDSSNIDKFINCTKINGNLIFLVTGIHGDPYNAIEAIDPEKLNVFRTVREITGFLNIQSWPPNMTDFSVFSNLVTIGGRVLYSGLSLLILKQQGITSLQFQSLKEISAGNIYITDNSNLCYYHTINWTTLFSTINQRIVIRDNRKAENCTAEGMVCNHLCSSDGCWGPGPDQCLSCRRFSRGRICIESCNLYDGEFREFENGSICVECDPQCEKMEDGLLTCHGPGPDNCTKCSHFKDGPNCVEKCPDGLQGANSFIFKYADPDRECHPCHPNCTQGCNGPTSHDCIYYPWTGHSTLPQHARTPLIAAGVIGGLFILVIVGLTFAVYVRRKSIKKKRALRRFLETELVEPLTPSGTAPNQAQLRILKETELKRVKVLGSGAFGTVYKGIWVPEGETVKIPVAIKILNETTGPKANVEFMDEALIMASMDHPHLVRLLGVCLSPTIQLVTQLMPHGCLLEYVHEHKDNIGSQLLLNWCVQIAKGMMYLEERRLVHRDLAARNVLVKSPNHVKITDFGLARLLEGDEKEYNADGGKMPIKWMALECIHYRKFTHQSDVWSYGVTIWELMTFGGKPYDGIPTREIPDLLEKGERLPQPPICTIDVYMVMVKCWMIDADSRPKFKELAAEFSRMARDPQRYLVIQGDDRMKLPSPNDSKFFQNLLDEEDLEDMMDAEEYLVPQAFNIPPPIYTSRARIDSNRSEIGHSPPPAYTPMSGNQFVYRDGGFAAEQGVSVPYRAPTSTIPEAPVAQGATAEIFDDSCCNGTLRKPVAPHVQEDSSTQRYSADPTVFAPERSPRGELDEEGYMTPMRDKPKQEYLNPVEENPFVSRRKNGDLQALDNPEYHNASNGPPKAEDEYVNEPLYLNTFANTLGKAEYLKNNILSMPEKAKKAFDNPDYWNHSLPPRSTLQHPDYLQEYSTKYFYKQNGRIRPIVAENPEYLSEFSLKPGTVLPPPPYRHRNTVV
Sequence of Proto-oncogene tyrosine-protein kinase receptor Ret (P07949 whole entry): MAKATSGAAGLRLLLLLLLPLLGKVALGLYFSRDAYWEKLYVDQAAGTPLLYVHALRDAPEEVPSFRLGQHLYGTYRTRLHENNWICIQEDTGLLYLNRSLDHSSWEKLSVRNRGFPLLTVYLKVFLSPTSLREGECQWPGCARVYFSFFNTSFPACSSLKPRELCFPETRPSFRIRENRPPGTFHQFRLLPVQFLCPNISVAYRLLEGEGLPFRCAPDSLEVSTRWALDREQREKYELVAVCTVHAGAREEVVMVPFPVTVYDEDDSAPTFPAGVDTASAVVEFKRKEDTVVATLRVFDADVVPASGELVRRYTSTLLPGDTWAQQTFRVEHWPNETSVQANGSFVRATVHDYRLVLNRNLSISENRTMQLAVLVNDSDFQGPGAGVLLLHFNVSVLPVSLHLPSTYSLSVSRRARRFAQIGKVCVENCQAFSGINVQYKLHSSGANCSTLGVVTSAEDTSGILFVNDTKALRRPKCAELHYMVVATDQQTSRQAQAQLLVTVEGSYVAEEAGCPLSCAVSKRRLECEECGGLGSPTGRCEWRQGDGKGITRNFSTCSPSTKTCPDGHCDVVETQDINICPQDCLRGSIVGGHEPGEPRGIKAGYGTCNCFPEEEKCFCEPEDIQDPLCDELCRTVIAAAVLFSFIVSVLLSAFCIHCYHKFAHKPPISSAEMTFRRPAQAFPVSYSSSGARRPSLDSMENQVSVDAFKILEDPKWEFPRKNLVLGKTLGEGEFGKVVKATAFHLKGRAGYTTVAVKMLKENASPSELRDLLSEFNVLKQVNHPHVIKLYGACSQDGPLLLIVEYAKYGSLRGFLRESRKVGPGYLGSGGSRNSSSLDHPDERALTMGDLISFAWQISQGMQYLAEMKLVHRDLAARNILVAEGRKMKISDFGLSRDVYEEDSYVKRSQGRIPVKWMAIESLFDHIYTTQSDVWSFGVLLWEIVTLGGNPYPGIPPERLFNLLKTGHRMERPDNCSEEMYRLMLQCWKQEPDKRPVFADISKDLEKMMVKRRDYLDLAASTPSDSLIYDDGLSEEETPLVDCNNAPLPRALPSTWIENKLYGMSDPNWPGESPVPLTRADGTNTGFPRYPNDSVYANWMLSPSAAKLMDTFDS
Sequence of Tyrosine-protein kinase Mer (Q12866 whole entry): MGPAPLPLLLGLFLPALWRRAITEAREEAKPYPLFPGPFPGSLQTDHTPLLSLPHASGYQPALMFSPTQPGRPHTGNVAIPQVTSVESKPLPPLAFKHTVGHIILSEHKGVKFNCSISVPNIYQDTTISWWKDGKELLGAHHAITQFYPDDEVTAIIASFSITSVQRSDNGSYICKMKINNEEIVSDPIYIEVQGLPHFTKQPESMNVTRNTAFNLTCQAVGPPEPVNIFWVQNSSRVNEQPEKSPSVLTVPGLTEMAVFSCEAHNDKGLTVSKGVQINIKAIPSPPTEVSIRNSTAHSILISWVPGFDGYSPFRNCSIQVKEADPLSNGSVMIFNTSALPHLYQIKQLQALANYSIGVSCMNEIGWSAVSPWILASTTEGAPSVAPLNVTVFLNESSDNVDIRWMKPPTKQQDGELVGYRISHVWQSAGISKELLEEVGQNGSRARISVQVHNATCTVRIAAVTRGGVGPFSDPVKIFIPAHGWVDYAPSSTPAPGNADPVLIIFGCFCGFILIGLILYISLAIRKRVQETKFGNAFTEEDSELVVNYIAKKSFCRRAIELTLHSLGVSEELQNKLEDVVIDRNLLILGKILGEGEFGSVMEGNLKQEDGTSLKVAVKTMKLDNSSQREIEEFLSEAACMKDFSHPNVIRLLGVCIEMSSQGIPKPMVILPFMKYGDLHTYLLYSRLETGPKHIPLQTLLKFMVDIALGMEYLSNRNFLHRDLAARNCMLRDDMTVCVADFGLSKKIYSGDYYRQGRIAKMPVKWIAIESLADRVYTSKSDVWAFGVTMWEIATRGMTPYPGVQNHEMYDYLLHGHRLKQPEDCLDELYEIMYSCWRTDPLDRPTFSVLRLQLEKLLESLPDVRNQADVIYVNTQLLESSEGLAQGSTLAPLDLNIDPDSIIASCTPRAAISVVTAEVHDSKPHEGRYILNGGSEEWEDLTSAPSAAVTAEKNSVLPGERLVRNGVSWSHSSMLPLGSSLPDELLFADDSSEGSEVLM
Sequence of Rho-associated protein kinase 1 (Q13464 whole entry): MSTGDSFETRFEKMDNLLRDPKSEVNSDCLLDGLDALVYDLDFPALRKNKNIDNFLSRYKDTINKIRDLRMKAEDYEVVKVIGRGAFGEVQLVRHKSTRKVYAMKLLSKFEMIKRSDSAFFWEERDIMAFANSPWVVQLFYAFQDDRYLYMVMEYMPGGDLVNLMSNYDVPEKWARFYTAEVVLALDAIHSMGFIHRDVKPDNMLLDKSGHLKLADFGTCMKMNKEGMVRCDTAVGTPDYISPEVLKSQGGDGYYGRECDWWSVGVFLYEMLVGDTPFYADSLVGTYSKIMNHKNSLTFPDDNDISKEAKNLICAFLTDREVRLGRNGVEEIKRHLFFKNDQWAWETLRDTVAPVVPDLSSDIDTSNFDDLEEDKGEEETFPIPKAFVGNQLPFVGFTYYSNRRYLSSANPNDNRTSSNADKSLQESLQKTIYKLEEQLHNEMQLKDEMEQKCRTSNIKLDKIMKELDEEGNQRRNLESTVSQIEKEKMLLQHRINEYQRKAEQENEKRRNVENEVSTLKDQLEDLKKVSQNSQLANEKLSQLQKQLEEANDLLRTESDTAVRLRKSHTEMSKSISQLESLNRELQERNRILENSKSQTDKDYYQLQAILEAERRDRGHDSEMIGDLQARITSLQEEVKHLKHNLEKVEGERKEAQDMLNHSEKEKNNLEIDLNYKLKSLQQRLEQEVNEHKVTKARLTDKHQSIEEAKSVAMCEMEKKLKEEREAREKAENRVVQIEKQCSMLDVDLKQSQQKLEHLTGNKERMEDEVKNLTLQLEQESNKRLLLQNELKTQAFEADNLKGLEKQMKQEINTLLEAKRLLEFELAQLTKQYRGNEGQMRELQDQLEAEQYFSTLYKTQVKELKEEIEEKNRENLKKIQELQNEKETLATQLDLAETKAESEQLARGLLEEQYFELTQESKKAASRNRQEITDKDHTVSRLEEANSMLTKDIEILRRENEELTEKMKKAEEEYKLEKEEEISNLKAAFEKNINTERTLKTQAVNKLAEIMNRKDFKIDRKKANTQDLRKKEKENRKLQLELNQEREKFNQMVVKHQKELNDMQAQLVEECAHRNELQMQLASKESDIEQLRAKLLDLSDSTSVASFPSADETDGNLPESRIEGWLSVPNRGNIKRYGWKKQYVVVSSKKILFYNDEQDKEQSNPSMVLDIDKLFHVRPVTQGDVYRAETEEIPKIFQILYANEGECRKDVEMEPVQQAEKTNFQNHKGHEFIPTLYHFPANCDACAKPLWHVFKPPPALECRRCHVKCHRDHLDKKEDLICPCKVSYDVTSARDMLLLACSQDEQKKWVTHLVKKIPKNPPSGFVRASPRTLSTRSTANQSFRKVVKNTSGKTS

SMILES: CC(C)n1cnnc1-c1cccc(N2Cc3ccccc3C2=O)n1
- IC50 [1]: 631 nM
- IC50 [2]: > 20000 nM
- pIC50 (MAP kinase p38): < 4.7
- IC50 [3]: > 20000 nM
- pIC50 [4]: 7.4
- IC50 [5]: 200 nM
- IC50 (Ephrin type-A receptor 3): > 20000 nM
- IC50 [6]: 63.1 nM
- IC50 [7]: 1000 nM
- IC50 [8]: 1260 nM
- IC50 [9]: 63.1 nM
- IC50 [10]: 14 nM
- IC50 [11]: > 20000 nM

SMILES: CC(C)n1cnnc1-c1cccc(NC(=O)C2CN(C)CCO2)n1 (centres undefined)
- IC50 [10]: 2 nM

SMILES: CC(C)n1cnnc1-c1cccc(NC(=O)C2CN(c3cccnc3)CCO2)n1 (centres undefined)
- IC50 [10]: 31 nM

SMILES: CC(C)n1cnnc1-c1cccc(NC(=O)C2CN(c3ccccc3)CCO2)n1 (centres undefined)
- IC50 [10]: 130 nM

More lines, main results first:

- IC50 [12]: ≤ 500 nM
- Ratio IC50 (Homo sapiens [13]): < 20
- IC50 [14]: ≤ 500 nM
- IC50 [15]: ≤ 500 nM
- hepatic extraction ratio [16]: 0.32
- IC50 [17]: ≤ 500 nM
- IC50 [18]: ≤ 500 nM
- Papp A→B (MDR1 (human)): 10.7 ×10⁻⁶ cm/s
- Fa [20]: 52%
- IC50 [21]: ≤ 500 nM
- IC50 [22]: ≤ 500 nM
- Ratio IC50 (Homo sapiens [23]): < 20
- Ratio IC50 (Homo sapiens [24]): < 20
- Ratio IC50 (Homo sapiens [25]): < 20
- solubility [26]: 101 µM (≈ 43.8 µg/mL)
- Ratio IC50 (Homo sapiens [27]): < 20
- bioavailability [28]: 18%
- IC50 [29]: ≤ 500 nM
- Ratio IC50 (Homo sapiens [30]): < 20
- EC50 [31]: 24 nM
- Ratio IC50 (Homo sapiens [32]): < 20
- IC50 [10]: 17 nM
- solubility [33]: > 200 µM
- Kd [34]: < 1 nM
SMILES: CC(C)n1cnnc1-c1cccc(NC(=O)[C@H]2CN(c3ccc(C4CC4)nc3)CCO2)n1
- Ratio IC50 (Homo sapiens [19]): < 20

- IC50 [1]: > 20000 nM
- IC50 [2]: > 20000 nM
- pIC50 (MAP kinase p38): < 4.7
- IC50 [3]: > 20000 nM
- pIC50 [4]: 6.2
- IC50 [5]: > 20000 nM
- IC50 (Ephrin type-A receptor 3): > 20000 nM
- IC50 [6]: 3160 nM
- IC50 [7]: > 20000 nM
- IC50 [8]: > 20000 nM
- IC50 [9]: > 20000 nM
- IC50 [10]: 270 nM
- IC50 [11]: > 20000 nM
SMILES: CC(C)n1cnnc1-c1cccc(NC(=O)C2CCCCO2)n1 (centres undefined)
